Results on 36 compounds are retold here after ChEMBL document CHEMBL1133966, “Substituted imidazoles as glucagon receptor antagonists” (Bioorg Med Chem Lett, 2001).

Structures are written as SMILES. Some results are limits rather than exact numbers.

The target of experiment [1] is T1, Glucagon receptor (Homo sapiens, UniProt P47871). The experiment in a line: Binding affinity towards human glucagon receptor in absence of Mg2+ expressed as IC50.
Experiment [2] has as its target T2, MAP kinase p38 (Homo sapiens, UniProt O15264+Q15759+Q16539+P53778). The experiment in a line: Binding affinity towards human Mitogen-activated protein kinase p38 expressed as IC50. It counts as protein assay.
Experiment [3] deals with T1, Glucagon receptor. The experiment in a line: Affinity for human glucagon receptor in presence of Mg2+.
Experiment [4] concerns the target T1, Glucagon receptor. The experiment in a line: Affinity for human glucagon receptor in absence of Mg2+. Also on record: concentration or dose not given beside the values. Conditions: concentration not given here.
In experiment [5] the target is T1, Glucagon receptor. The experiment in a line: Binding affinity towards human glucagon receptor in absence of Mg2+. The following applies: concentration not given here.
Experiment [6] concerns the target T2, MAP kinase p38. The experiment in a line: Inhibition of human Mitogen-activated protein kinase p38 at 40 uM. It counts as protein assay.

T1 sequence (P47871 whole entry): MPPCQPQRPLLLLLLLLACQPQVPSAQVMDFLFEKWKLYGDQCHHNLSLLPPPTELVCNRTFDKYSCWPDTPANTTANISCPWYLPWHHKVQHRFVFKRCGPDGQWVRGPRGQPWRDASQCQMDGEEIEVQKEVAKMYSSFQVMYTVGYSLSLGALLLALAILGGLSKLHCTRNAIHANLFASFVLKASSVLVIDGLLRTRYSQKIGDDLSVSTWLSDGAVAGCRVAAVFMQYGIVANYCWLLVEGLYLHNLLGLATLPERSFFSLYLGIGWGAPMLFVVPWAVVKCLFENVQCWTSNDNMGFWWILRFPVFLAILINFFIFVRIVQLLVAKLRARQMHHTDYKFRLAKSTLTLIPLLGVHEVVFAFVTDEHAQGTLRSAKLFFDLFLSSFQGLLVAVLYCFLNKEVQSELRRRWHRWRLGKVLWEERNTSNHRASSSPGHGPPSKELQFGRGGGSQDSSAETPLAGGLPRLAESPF

For `Fc1ccc(-c2[nH]c(-c3cc(Br)cs3)nc2-c2ccncc2)cc1`, the IC50 (as a rule, the point on the concentration scale where inhibition reaches its midpoint) amounted to 2800 nM at Glucagon receptor [1] and 100 nM on MAP kinase p38 [2].

On Glucagon receptor [1], `Fc1ccc(-c2nc(-c3ccccc3)[nH]c2-c2ccncc2)cc1` had an IC50 greater than 20000 nM.

For `Cc1cnccc1-c1[nH]c(-c2ccc(Cl)cc2)nc1-c1ccc(F)cc1`, the concentration for half-maximal inhibition (IC50) on Glucagon receptor [1] was 1100 nM; at MAP kinase p38 [2], 20 nM.

As for `N#Cc1ccc(-c2nc(-c3ccncc3)c(-c3ccc(F)cc3)[nH]2)cc1`, the figures for the IC50 on Glucagon receptor [1] and on MAP kinase p38 [2] were 8000 nM and 210 nM, respectively.

With `CCCCc1ccc(-c2[nH]c(-c3ccc(Cl)cc3)nc2-c2ccncc2)cc1`, the IC50 on Glucagon receptor [1] is 74 nM; at Glucagon receptor [3], 150 nM; at MAP kinase p38 [2], greater than 10000 nM.

Consider `Fc1ccc(-c2[nH]c(-c3ccc(Cl)cc3)nc2-c2ccncc2)cc1`, for which the IC50 turned out to be 400 nM at Glucagon receptor [1], 3200 nM at Glucagon receptor [3] and 80 nM at MAP kinase p38 [2].

In the case of `Fc1ccc(-c2[nH]c(-c3ccc(Br)cc3)nc2-c2ccncc2)cc1`, the IC50 turned out to be 270 nM at Glucagon receptor [1], 2900 nM at Glucagon receptor [3] and 160 nM at MAP kinase p38 [2].

For the compound `CC(C)c1ccc(-c2nc(-c3ccc(F)cc3)c(-c3ccncc3)[nH]2)cc1`, the IC50 at Glucagon receptor [1] is 700 nM; on MAP kinase p38 [2] it was 280 nM.

`Fc1ccc(-c2[nH]c(CCc3ccccc3)nc2-c2ccncc2)cc1`: at Glucagon receptor [4], the inhibition – broadly, the relative decrease from the control value, in per cent – is less than 20%. The compound also registered an IC50 at MAP kinase p38 [2] of 130 nM.

With `Clc1ccc(-c2nc(-c3ccc(I)cc3)c(-c3ccncc3)[nH]2)cc1`, the values for the IC50 at Glucagon receptor [1], on Glucagon receptor [3] and at MAP kinase p38 [2] were 130 nM, 750 nM and 140 nM, respectively.

With `Fc1ccc(-c2[nH]c(-c3ccc(-c4ccccc4)cc3)nc2-c2ccncc2)cc1`, the IC50 on Glucagon receptor [1] turned out to be 10000 nM; at MAP kinase p38 [2], 300 nM.

As for `CCCOc1ccc(-c2[nH]c(-c3ccc(Cl)cc3)nc2-c2ccncc2)c(OCCC)c1`, the IC50 on Glucagon receptor [1] was 13 nM; on Glucagon receptor [3], 120 nM; on MAP kinase p38 [2], 2400 nM.

Take `CSc1ccc(-c2nc(-c3ccncc3)c(-c3ccc(F)cc3)n2C)cc1`: the inhibition at Glucagon receptor [4] is 38%. In addition, the IC50 at MAP kinase p38 [2] worked out at 860 nM.

As to `Fc1ccc(-c2[nH]c(-c3ccc(Br)o3)nc2-c2ccncc2)cc1`, the inhibition on Glucagon receptor [4] was less than 20%. At MAP kinase p38 [2], this compound yielded an IC50 of 190 nM.

On to `Fc1ccc(-c2[nH]c(-c3ccc(I)cc3)nc2-c2ccncc2)cc1`, for which the figures for the IC50 at Glucagon receptor [1] and on MAP kinase p38 [2] were 510 nM and 100 nM, respectively.

Regarding `Brc1ccc(-c2nc(-c3ccccc3)c(-c3ccccc3)[nH]2)cc1`, on Glucagon receptor [4], the inhibition came to 37%. On MAP kinase p38 [2], this compound returned a concentration for half-maximal inhibition (IC50) of 2200 nM.

`Oc1ccc(-c2nc(-c3ccc(F)cc3)c(-c3ccncc3)[nH]2)cc1`: the inhibition at Glucagon receptor [5] is less than 20%.

On to `Clc1ccc(-c2nc(-c3ccc(Cl)cc3)c(-c3ccncc3)[nH]2)cc1`, for which the IC50 worked out at 190 nM on Glucagon receptor [1], 2200 nM on Glucagon receptor [3] and 23 nM at MAP kinase p38 [2].

Consider `Fc1ccc(-c2[nH]c(-c3cccc(Br)c3)nc2-c2ccncc2)cc1`, for which the IC50 is 1400 nM on Glucagon receptor [1] and 150 nM at MAP kinase p38 [2].

`CSc1ccc(-c2nc(-c3ccc(F)cc3)c(-c3ccncc3)o2)cc1`: the inhibition against Glucagon receptor [4] is -8%. The IC50 at MAP kinase p38 [2] came to 930 nM.

As for `CSc1ccc(-c2nc(-c3ccc(F)cc3)c(-c3ccncc3)n2C)cc1`, the inhibition against Glucagon receptor [4] was 10%. The IC50 on MAP kinase p38 [2] stood at 520 nM.

As for `Cc1ccc(-c2nc(-c3ccc(F)cc3)c(-c3ccncc3)[nH]2)cc1`, the IC50 on Glucagon receptor [1] turned out to be 1300 nM; at MAP kinase p38 [2] it was 90 nM.

With `Clc1ccc(-c2nc(-c3ccccc3Oc3ccccc3)c(-c3ccncc3)[nH]2)cc1`, the concentration for half-maximal inhibition (IC50) at Glucagon receptor [1] came out at 6.5 nM; at Glucagon receptor [3] it was 290 nM; on MAP kinase p38 [2], 150 nM.

Take `CC(C)(C)c1ccc(-c2[nH]c(-c3ccc(Cl)cc3)nc2-c2ccncc2)cc1`: the concentration for half-maximal inhibition (IC50) is 130 nM at Glucagon receptor [1], 3400 nM on Glucagon receptor [3] and greater than 10000 nM on MAP kinase p38 [2].

`Oc1ccc(-c2[nH]c(-c3ccc(Br)cc3)nc2-c2ccccc2)cc1`: on Glucagon receptor [4], the inhibition came out at 24%. The same compound returned an IC50 at MAP kinase p38 [2] of 100 nM.

Consider `Cc1cc(-c2[nH]c(-c3ccc(Cl)cc3)nc2-c2ccc(F)cc2)ccn1`, for which the inhibition against Glucagon receptor [4] amounted to 38%. The IC50 at MAP kinase p38 [2] came to 50 nM.

With `Clc1ccc(-c2nc(-c3ccc(-c4ccccc4)cc3)c(-c3ccncc3)[nH]2)cc1`, the IC50 at Glucagon receptor [1] turned out to be 140 nM; on Glucagon receptor [3], 3800 nM; at MAP kinase p38 [2], 3300 nM.

Take `Clc1ccc(-c2nc(-c3cccc(Oc4ccccc4)c3)c(-c3ccncc3)[nH]2)cc1`: the IC50 on Glucagon receptor [1] is 13 nM; at Glucagon receptor [3], 150 nM; at MAP kinase p38 [2] it was 220 nM.

In the case of `Fc1ccc(-c2[nH]c(-c3ccc(Br)s3)nc2-c2ccncc2)cc1`, the IC50 was 2200 nM at Glucagon receptor [1] and 110 nM on MAP kinase p38 [2].

As for `Brc1ccc(-c2nc(-c3ccccc3)c(-c3ccncc3)[nH]2)cc1`, the IC50 on Glucagon receptor [1] came to 782 nM; at MAP kinase p38 [2], 40 nM.

`CCCCOc1ccc(-c2[nH]c(-c3ccc(Cl)cc3)nc2-c2ccncc2)c(OCCCC)c1`: the IC50 is 6.5 nM on Glucagon receptor [1] and 53 nM at Glucagon receptor [3]. In addition, the inhibition against MAP kinase p38 [6] was 20%.

With `Clc1ccc(-c2nc(-c3ccc(Oc4ccccc4)cc3)c(-c3ccncc3)[nH]2)cc1`, the IC50 was determined as 27 nM at Glucagon receptor [1], 110 nM on Glucagon receptor [3] and 250 nM at MAP kinase p38 [2].

Consider `Fc1ccc(-c2[nH]c(-c3ccccc3Br)nc2-c2ccncc2)cc1`, for which, on Glucagon receptor [5], the inhibition was less than 20%. The same compound returned an IC50 at MAP kinase p38 [2] of 90 nM.

As for `Clc1ccc(-c2nc(-c3cccc(-c4ccccc4)c3)c(-c3ccncc3)[nH]2)cc1`, the IC50 on Glucagon receptor [1] is 61 nM; on Glucagon receptor [3] it was greater than 3000 nM; on MAP kinase p38 [2], 590 nM.

Turning to `Fc1ccc(-c2[nH]c(-c3cccc4ccccc34)nc2-c2ccncc2)cc1`, the IC50 was 1500 nM on Glucagon receptor [1] and 340 nM at MAP kinase p38 [2].

Consider `CCCCOc1ccccc1-c1[nH]c(-c2ccc(Cl)cc2)nc1-c1ccncc1`, for which the IC50 on Glucagon receptor [1] is 8.5 nM; on Glucagon receptor [3] it was 110 nM; at MAP kinase p38 [2] it was greater than 1000 nM.
